Activity calls are given as the source filed them. No cut-off for these calls is given here.
What was measured:
[1] = target: T1, Signal transducer and activator of transcription 3 (Homo sapiens, UniProt P40763); experiment: Inhibition of STAT3 in human MGC-803 cells assessed as downregulation of cyclin D1 expression up to 40 nM by western blot analysis; assay type: cell-based; details: time <= 24.0 hrs, TDE = time-dependent effect
MKN-45 [2] = experiment: Inhibition of mitochondrial respiration in human MKN-45 cells assessed as decrease in basal oxygen consumption rate at 1 to 100 nM incubated for 1 hr by Seahorse XF24 extracellular flux analyzer; assay type: functional, cell-based; details: dose 1-100 nM
[3] = Volume of distribution at steady state in ICR mouse plasma at 1 mg/kg, iv measured up to 24 hrs by LC-MS/MS analysis; assay type: ADME, organism-based; details: read-out: Vdss
MKN-45 [4] = experiment: Antitumor activity against human MKN-45 cells xenografted in BALB/c nude mouse assessed as decrease in tumor volume at 25 mg/kg, po qd measured for 5 weeks; assay type: functional, organism-based
[5] = target: T1, Signal transducer and activator of transcription 3; experiment: Inhibition of STAT3 in human MKN-45 cells assessed as downregulation of Survivin expression at 10 to 40 nM incubated for 24 hrs by RT-PCR analysis; assay type: cell-based; details: dose 10-40 nM
[6] = Toxicity in […] mouse assessed as body weight loss at 25 to 50 mg/kg, po qd administered for 5 weeks; assay type: organism-based; details: in vivo, 840 h, dose 25-50 mg/kg
[7] = target: T1, Signal transducer and activator of transcription 3; experiment: Binding affinity to human STAT3 transfected in HEK293T cells assessed as change in melting temperature at 5 uM by thermal shift assay; assay type: cell-based
MKN-45 [8] = experiment: Induction of apoptosis in human MKN-45 cells assessed as viable cells at 5 nM incubated for 48 hrs by FITC-annexin V/propidium iodide staining based flow cytometry (reference value: 68%); assay type: functional; details: read-out: Activity
[9] = target: T1, Signal transducer and activator of transcription 3; experiment: Inhibition of STAT3 in human AGS cells assessed as downregulation of c-Myc expression incubated up to 24 hrs by western blot analysis; assay type: cell-based; details: dose <= 40.0 nM, DDE = dose-dependent effect
MKN-45 [10] = experiment: Induction of apoptosis in human MKN-45 cells assessed as early apoptic cells 5 nM incubated for 48 hrs by FITC-annexin V/propidium iodide staining based flow cytometry (reference value: 2.79%); assay type: functional
[11] = Toxicity in BALB/c nude mouse xenografted with human MKN-45 cells assessed as lung damage at 25 to 50 mg/kg, po qd administered for 5 weeks by H and E staining based analysis; assay type: organism-based; details: in vivo, 840 h, dose 25-50 mg/kg
[12] = target: T1, Signal transducer and activator of transcription 3; experiment: Inhibition of STAT3 phosphorylation at Tyr705 residue in human MKN-45 cells upto 40 nM incubated upto 24 hrs by Western blotting analysis; assay type: cell-based
MKN-45 [13] = experiment: Potency index, ratio of IC50 for BBI608 to IC50 for test compound for antiproliferative activity against human MKN-45 cells assessed as reduction in cell viability incubated for 72 hrs by MTS assay; assay type: functional
[14] = Toxicity in […] mouse xenografted with human MKN-45 cells assessed as lung damage at 25 to 50 mg/kg, po qd administered for 5 weeks by H and E staining based analysis; assay type: organism-based; details: in vivo, 840 h, dose 25-50 mg/kg
[15] = target: T1, Signal transducer and activator of transcription 3; experiment: Inhibition of STAT3 in human MKN-45 cells assessed as downregulation of c-Myc expression incubated up to 24 hrs by western blot analysis; assay type: cell-based; details: dose <= 40.0 nM, DDE = dose-dependent effect
[16] = target: T1, Signal transducer and activator of transcription 3; experiment: Inhibition of STAT3 in human AGS cells assessed as downregulation of Survivin expression at 10 to 40 nM incubated for 24 hrs by RT-PCR analysis; assay type: cell-based; details: dose 10-40 nM
[17] = target: T1, Signal transducer and activator of transcription 3; experiment: Inhibition of STAT3 phosphorylation at Ser727 residue in human AGS cells upto 40 nM incubated upto 24 hrs by Western blotting analysis; assay type: cell-based
MKN-45 [18] = experiment: Induction of apoptosis in human MKN-45 cells assessed as necrotic cells 10 nM incubated for 48 hrs by FITC-annexin V/propidium iodide staining based flow cytometry (reference value: 10.3%); assay type: functional
[19] = target: T1, Signal transducer and activator of transcription 3; experiment: Inhibition of STAT3 phosphorylation at Ser727 residue in human MKN-45 cells incubated upto 24 hrs by Western blotting analysis; assay type: cell-based; details: dose <= 40.0 nM, DDE = dose-dependent effect
MKN-45 [20] = experiment: In vivo inhibition of STAT3 in human MKN-45 cells xenografted in BALB/c nude mouse assessed as reduction in cyclin D1 gene expression at 25 to 50 mg/kg, po qd administered for 5 weeks by Western blot analysis; assay type: functional, organism-based; details: dose 25-50 mg/kg
[21] = Toxicity in […] mouse xenografted with human MKN-45 cells assessed as spleen damage at 25 to 50 mg/kg, po qd administered for 5 weeks by H and E staining based analysis; assay type: organism-based; details: in vivo, 840 h, dose 25-50 mg/kg
[22] = target: T2, Mitogen-activated protein kinase 13 (Homo sapiens, UniProt O15264); experiment: Inhibition of p38delta (unknown origin)
T2 sequence (O15264 whole entry): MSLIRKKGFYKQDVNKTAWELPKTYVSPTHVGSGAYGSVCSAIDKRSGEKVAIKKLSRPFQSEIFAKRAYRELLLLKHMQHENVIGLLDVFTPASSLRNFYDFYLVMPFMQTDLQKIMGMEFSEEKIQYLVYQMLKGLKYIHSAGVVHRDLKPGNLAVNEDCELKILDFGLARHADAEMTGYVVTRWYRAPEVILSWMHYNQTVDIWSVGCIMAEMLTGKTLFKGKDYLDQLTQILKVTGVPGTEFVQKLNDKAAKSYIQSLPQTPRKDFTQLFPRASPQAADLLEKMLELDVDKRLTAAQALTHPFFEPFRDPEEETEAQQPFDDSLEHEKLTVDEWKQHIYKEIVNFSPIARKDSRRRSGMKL

[23] = AUC (0 to t) in ICR mouse plasma at 10 mg/kg, po measured up to 24 hrs by LC-MS/MS analysis; assay type: ADME, organism-based; parameters: time < 24 hrs, dose 10 mg/kg, route po
[24] = Apparent volume of distribution in ICR mouse plasma at 1 mg/kg, iv measured up to 24 hrs by LC-MS/MS analysis; assay type: ADME, organism-based; details: read-out: Vz
AGS = experiment: Induction of apoptosis in human AGS cells assessed as necrotic cells 10 nM incubated for 48 hrs by FITC-annexin V/propidium iodide staining based flow cytometry (reference value: 2.70%); assay type: functional
MKN-45 [25] = experiment: Induction of apoptosis in human MKN-45 cells assessed as early apoptic cells 10 nM incubated for 48 hrs by FITC-annexin V/propidium iodide staining based flow cytometry (reference value: 2.79%); assay type: functional
[26] = target: Proto-oncogene tyrosine-protein kinase Src (Homo sapiens, UniProt P12931); experiment: Inhibition of SRC (unknown origin)
MKN-45 [27] = experiment: In vivo inhibition of STAT3 phosphorylation at Tyr705 residue in human MKN-45 cells xenografted in BALB/c nude mouse at 25 to 50 mg/kg, po qd administered for 5 weeks by western blot analysis; assay type: functional, organism-based; details: dose 25-50 mg/kg
[28] = target: T1, Signal transducer and activator of transcription 3; experiment: Inhibition of human recombinant STAT3 (127 to 722 residues) transcriptional activity expressed in HEK293T cells in presence of IL-6 by Dual-luciferase reporter gene assay; assay type: cell-based
[29] = target: T1, Signal transducer and activator of transcription 3; experiment: Inhibition of STAT3 in human MKN-45 cells assessed as downregulation of c-Myc expression up to 40 nM by western blot analysis; assay type: cell-based; details: time <= 24.0 hrs, DDE = dose-dependent effect
[30] = Toxicity in […] mouse xenografted with human MKN-45 cells assessed as heart damage at 25 to 50 mg/kg, po qd administered for 5 weeks by H and E staining based analysis; assay type: organism-based; details: in vivo, 840 h, dose 25-50 mg/kg

T1 sequence (P40763 whole entry): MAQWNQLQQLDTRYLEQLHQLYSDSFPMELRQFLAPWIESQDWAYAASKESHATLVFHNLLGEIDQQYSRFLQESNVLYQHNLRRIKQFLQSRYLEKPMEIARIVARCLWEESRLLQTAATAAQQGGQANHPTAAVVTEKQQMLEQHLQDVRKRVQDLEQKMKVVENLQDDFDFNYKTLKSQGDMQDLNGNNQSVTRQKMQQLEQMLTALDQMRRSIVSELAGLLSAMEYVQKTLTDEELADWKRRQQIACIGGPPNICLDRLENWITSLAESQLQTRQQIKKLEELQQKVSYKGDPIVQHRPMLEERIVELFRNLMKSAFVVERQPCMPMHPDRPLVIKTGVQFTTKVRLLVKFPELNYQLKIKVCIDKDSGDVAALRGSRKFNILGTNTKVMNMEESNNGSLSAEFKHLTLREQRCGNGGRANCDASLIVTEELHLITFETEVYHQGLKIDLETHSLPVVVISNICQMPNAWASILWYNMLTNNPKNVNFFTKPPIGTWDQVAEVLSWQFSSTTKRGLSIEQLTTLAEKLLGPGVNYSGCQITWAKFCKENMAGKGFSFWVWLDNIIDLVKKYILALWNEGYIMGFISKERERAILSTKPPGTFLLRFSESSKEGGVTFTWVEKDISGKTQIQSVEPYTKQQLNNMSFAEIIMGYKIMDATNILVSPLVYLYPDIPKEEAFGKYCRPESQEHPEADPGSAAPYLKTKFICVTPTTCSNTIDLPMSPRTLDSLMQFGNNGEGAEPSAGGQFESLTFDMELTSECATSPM
Sequence of Proto-oncogene tyrosine-protein kinase Src (P12931 2-536 limits assumed): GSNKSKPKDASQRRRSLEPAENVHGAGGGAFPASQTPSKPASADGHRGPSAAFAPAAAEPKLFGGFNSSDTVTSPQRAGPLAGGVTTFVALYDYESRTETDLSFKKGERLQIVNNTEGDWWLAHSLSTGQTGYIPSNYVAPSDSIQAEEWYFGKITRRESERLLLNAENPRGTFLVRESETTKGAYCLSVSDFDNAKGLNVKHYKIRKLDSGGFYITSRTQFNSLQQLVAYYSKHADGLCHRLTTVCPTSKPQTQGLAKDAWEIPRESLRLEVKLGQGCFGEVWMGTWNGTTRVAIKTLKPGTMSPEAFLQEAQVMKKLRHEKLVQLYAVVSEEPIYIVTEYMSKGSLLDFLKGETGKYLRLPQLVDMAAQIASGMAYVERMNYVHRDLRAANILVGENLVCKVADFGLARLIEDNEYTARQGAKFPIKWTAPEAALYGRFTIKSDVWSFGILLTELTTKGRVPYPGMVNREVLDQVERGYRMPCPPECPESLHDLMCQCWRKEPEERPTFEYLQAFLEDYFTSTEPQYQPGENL

inhibition [1]: Tde
Vd [3]: 6.56 L/kg
Activity [7]: Active
inhibition [9]: Dde
inhibition [12]: 100%
inhibition [15]: Dde
inhibition [17]: 100%
inhibition [19]: Dde
IC50 [22]: > 10 µM
AUC(0-t) at 24 h [23]: 9400 ng·h/mL
Vd [24]: 5.76 L/kg
IC50 [26]: > 10 µM
IC50 [28]: 0.0278 µM
inhibition [29]: Dde
SMILES: O=C(c1ccc(-c2noc(-c3ccc(C(F)(F)F)cc3)n2)cc1)N1CCN(Cc2ccc(OCC(F)(F)F)cc2)CC1
inhibition (MKN-45 [2]): Active
Activity (MKN-45 [4]): Active
inhibition [5]: Active
Activity [6]: Non-Toxic
viability at 0.005 µM (MKN-45 [8]): 69.6%
Activity (MKN-45 [10]): 4.73%
Activity [11]: Non-Toxic
Ratio IC50 (MKN-45 [13]): 30
Activity [14]: Non-Toxic
inhibition [16]: Active
Activity (MKN-45 [18]): 9.14%
inhibition (MKN-45 [20]): Active
Activity [21]: Non-Toxic
Activity (AGS): 4.79%
Activity (MKN-45 [25]): 5.7%
inhibition (MKN-45 [27]): Active
Activity [30]: Non-Toxic

Reference: ChEMBL document CHEMBL5108044, “Discovery of a Novel Potent STAT3 Inhibitor HP590 with Dual p-Tyr705/Ser727 Inhibitory Activity for Gastric Cancer Treatment” (J Med Chem, 2022)
